According to the CheMixHub viscosity set:
± gives the uncertainty stated by the source.

Settings: 101 kPa

For `CCCC(=O)[O-].CC[NH+](CC)CCO`, the viscosity (293.15 K) was 71.57 ± 1.6 mPa·s, the viscosity (298.15 K) was 53.96 ± 1.1 mPa·s and the viscosity (303.15 K) was 41.42 ± 0.89 mPa·s. It also gave a viscosity (308.15 K) of 32.34 ± 0.69 mPa·s, a viscosity (313.15 K) of 25.64 ± 0.55 mPa·s and a viscosity (318.15 K) of 20.63 ± 0.44 mPa·s. The viscosity (323.15 K) was 16.82 ± 0.36 mPa·s.
